One data set relates to Factor Xa. The data set is described as follows: AT-III-mediated chromogenic substrate assay. Format: biochemical. The note with it: absorbance at 405 nm. An excerpt: (§1) Active coagulation factors cleave chromogenic peptide substrates, therefore producing p-nitroaniline, a yellow-colored product with a detectable absorbance signal at λ = 405 nm. Inhibitors like heparin-AT-III complexes decrease enzyme activity and so lower absorbance readings.

Data set [1] concerns citrated pooled rat plasma. The experiment in a line: Activated partial thromboplastin time (aPTT) assay. The note with it: citrated pooled rat plasma; highest concentration tested; control 22 s. An excerpt:
To complement these findings, we performed an activated partial thromboplastin time (aPTT) assay in citrated pooled rat plasma to assess the overall impact of the compounds on the intrinsic coagulation pathway. This global clotting assay measures the time required for fibrin formation and is sensitive to anticoagulant effects. Figure F,G compare the effects of UFH, heparan sulfate, Fondaparinux, and the synthetic glycomimetics when supplemented into citrated plasma. […] As expected, UFH produced a strong, concentration-dependent anticoagulant response, prolonging the mean clotting time to 271 s at the highest concentration tested, while heparan sulfate and Fondaparinux induced weaker but measurable effects (83 and 37 s, respectively). […] The results further confirm that selective sulfation patterns can decouple GF recognition from anticoagulant function, an essential prerequisite for their translational application in regenerative medicine. […] These interactions are in line with nonspecific electrostatic binding, a feature of highly sulfated oligosaccharides known to engage different proteins via charge-based, rather than specific, biologically targeted interactions. Thus, to avoid potential off-target effects associated with highly sulfated analogues, we selected the disaccharide D2 for subsequent biological experiments.

The next data set deals with FGF-1 (Homo sapiens, UniProt P05230). The experiment in a line: Far-UV CD spectroscopy and CD thermal denaturation. The note with it: CD thermal denaturation 10–90 °C; protein with sugar, 1:3 molar ratio. The text has this: (§2) To select a lead compound, we complemented the affinity data with a series of studies evaluating the structural and functional implications of protein-HS glycomimetic interactions. We assessed the therapeutic safety profile of our HS glycomimetics. We also employed circular dichroism (CD) spectroscopy to assess secondary structural changes in protein conformation upon binding to native HS and HS glycomimetics. Since native HS alone produces only a minimal signal, it was ensured that its contribution would not interfere with protein-sugar complex spectra. Therefore, only the far-UV CD spectra of bare proteins and their sugar complexes were recorded. […] Upon incubation with sugars (1:3 molar ratio), significant spectral changes were observed, indicating sugar-induced alterations in secondary structure (Figure A).
(§3) We also evaluated the thermal stability of the proteins and their sugar complexes by CD-based thermal denaturation experiments. The spectra were recorded across a temperature range of 10–90 °C (Figure B). For all proteins except AT-III, the unfolding profiles were analyzed to determine the melting temperature (T m), representing the midpoint of the transition from the folded to the unfolded state, an indicator of structural integrity and resistance to thermal denaturation. The calculated values are compiled in Table .

Data set [2] concerns the target T1, FGF-2 (Homo sapiens, UniProt P09038). The experiment in a line: Far-UV CD spectroscopy and CD thermal denaturation. The note with it: CD thermal denaturation 10–90 °C; protein with sugar, 1:3 molar ratio.
From the text: as §2, §3

Data set [3] addresses T1, FGF-2. The data set is described as follows: BLI competition assay with immobilized native HS for FGF-2 binding. The note with it: for competition with immobilized native HS for FGF-2 binding, signal intensity: FGF-2 50 nM premixed with varying concentrations; for IC50: FGF-2 50 nM, fixed association time t = 240 s, read-out: Apparent IC50(t), competition with immobilized native HS for FGF-2 binding. The text has this:
We next examined the functional relevance of the synthetic HS glycomimetics by testing their ability to compete with native HS for FGF-2 binding using competition assays. Although direct binding assays measure the intrinsic affinity of HS glycomimetics for FGF-2, they are limited in representing the complex, multimolecular environment of biological systems. In vivo, FGF-2 activity is tightly regulated by its interactions with GAGs, which are abundant on cell surfaces and in the ECM. These interactions stabilize FGF-2 and facilitate its dimerization with FGF receptors (FGFRs), a requirement for effective signal transduction. , Thus, therapeutic candidates targeting FGF-2 must be evaluated not only for direct binding but also for their ability to modulate or disrupt GAG-mediated interactions. Therefore, we performed competition assays in which native HS was immobilized on the sensor surface. Solutions containing a fixed concentration of FGF-2 (50 nM) were premixed with varying concentrations of HS glycomimetics, functioning as inhibitors in this context, (M1, D1, D2, D3, and T1) and also with the heparin hexasaccharide (H1) (GlcNS6S-GlcA-GlcNS3S6S-IdoA2S-GlcNS6S-GlcA), a well-studied HS glycomimetic in the literature, as a positive control (Figure B). […] The progressive decrease in signal intensity with increasing inhibitor concentration directly reflects competition with immobilized HS for FGF-2 binding.

Data set [4] deals with rat dissociated hippocampal neurons. The data set is described as follows: Neurite morphometry in dissociated hippocampal neurons. The note with it: 24 h treatment, 1 day in vitro, D2 1 μM, FGF-2 40 ng/mL, mean ± SEM. Format: cell-based. As for the experimental part:
In the pursuit of this, we used rat dissociated hippocampal neurons as an in vitro model system. We assessed the impact of HS glycomimetics on neuronal morphology, using immunofluorescence imaging and quantitative morphometric analysis, and on synaptic functionality through electrophysiological monitoring of spontaneous neuronal activity.
During the first day of differentiation in vitro (Table S7.1 in SI), neurons were treated for 24 h with either control medium, glycomimetic D2 (1 μM), FGF-2 (40 ng/mL) alone, or a combination of FGF-2 and D2 (40 ng/mL and 1 μM, respectively). After treatments, cultures were fixed and immuno-labeled with antibodies against the neuronal marker β-Tubulin III to study cell morphology. […] Quantitative analysis further corroborated these observations (Figure B–C).

In the next data set the test system is hippocampal neurons. The experiment in a line: Patch clamp recording of spontaneous synaptic activity in hippocampal neurons. In kind it is cell-based, rat. The note with it: 24 h treatment, neurons at 8 days in vitro, voltage clamp −58 mV; mean ± SEM. The text has this:
In another set of experiments, we investigated the impact of D2+FGF-2, with respect to that of FGF-2 alone, on the formation of functionally active neuronal networks. To this aim, we used hippocampal neurons developed in vitro for 1 week, from which, through the single-cell patch clamp technique, we recorded in voltage clamp mode spontaneous synaptic activity. […] While neurons treated with FGF-2 alone presented sPSCs of fluctuating amplitude (in average 42 ± 5 pA) at a frequency of 1.23 ± 0.38 Hz, the coapplication of D2 with the growth factor induced a statistically significant enhancement of both these values (for D2+FGF-2, sPSCs frequency: 2.52 ± 0.47 Hz, and sPSCs amplitude: 75 ± 14 pA, p < 0.05 FGF-2 vs D2+FGF-2, Figure E–F).

A further data set relates to Factor IIa (thrombin). The data set is described as follows: AT-III-mediated chromogenic substrate assay. In kind it is biochemical. The note with it: absorbance at 405 nm.
From the text: as §1

The next data set concerns the target AT-III (Homo sapiens, UniProt P01008). The data set is described as follows: BLI binding assay, sugars immobilized, protein as analyte. The procedure: We evaluated the binding affinity of native HS and synthetic HS glycomimetics (M1, D1, D2, D3, and T1) to these proteins using biolayer interferometry (BLI). The terminal amino groups of the sugars were immobilized onto the sensor surface using standard amine coupling chemistry, and binding assays were performed by introducing the proteins as analytes at varying concentrations (Figure A). The equilibrium dissociation constants (K D) were determined using the steady-state affinity curve fitting.

Values joined by “and” are separate entries in the source; they are usually repeats but may differ in a detail not shown here. Equal values may be shown once. “Also recorded” adds a separate entry of the source.

T1 sequence (P09038 134-288 limits assumed, species assumed): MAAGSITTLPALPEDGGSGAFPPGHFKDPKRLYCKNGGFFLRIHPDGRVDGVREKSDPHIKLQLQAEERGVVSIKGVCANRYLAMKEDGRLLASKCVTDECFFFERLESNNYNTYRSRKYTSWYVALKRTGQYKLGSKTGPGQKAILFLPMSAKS
FGF-1, sequence (P05230 whole entry, species assumed): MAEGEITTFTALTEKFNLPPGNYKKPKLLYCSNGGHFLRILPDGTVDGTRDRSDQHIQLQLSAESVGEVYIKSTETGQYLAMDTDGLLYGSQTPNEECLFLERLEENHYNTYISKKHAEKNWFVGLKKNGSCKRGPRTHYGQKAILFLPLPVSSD
AT-III, sequence (P01008 33-464): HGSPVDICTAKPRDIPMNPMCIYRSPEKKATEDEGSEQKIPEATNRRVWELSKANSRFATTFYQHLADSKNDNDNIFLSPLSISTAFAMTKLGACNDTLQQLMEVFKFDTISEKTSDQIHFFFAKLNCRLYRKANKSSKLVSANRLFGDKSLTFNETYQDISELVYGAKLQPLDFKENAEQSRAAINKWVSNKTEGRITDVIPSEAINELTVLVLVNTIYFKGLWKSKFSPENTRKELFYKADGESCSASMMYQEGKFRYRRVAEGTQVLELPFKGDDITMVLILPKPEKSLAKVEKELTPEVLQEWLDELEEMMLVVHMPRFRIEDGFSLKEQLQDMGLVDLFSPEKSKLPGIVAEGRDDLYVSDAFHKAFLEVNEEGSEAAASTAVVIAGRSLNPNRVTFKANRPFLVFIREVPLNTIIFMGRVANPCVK

As to `CO[C@H]1O[C@H](COS(=O)(=O)O)[C@@H](O[C@@H]2O[C@@H](C(=O)O)[C@@H](O[C@H]3O[C@H](COS(=O)(=O)O)[C@@H](O[C@@H]4O[C@H](C(=O)O)[C@@H](O[C@H]5O[C@H](COS(=O)(=O)O)[C@@H](O)[C@H](O)[C@H]5NS(=O)(=O)O)[C@H](O)[C@H]4O)[C@H](OS(=O)(=O)O)[C@H]3NS(=O)(=O)O)[C@H](O)[C@H]2OS(=O)(=O)O)[C@H](O)[C@H]1NS(=O)(=O)O` [Fondaparinux, reference compound], the “AT-III-mediated Factor Xa activity” value in the data set with Factor Xa is recorded as “selectively inhibited”. Moreover, the “aPTT mean clotting time” value in data set [1] stood at 37 s.

As for `CC(=O)N[C@H]1[C@@H](OCCN)O[C@H](COS(=O)(=O)O)[C@@H](O)[C@@H]1O` [M1, GlcNAc6S], the “FGF-1 Sample Tm” value on FGF-1 was 43.3 °C and 43.3 ± 0.4 °C. Also, at FGF-2 [2], the “FGF-2 Sample Tm” value is 50.7 °C and 50.7 ± 0.2 °C. For the same molecule, the “aPTT mean clotting time” value in [1] turned out to be 22 s. On FGF-2 [3], the “competition with immobilized native HS for FGF-2 binding, signal intensity” value (shortened to “competition with immobilized native HS”) is “much weaker effect; also recorded: minimal inhibition”.

As for `CC(=O)N[C@H]1[C@@H](OCCN)O[C@H](CO)[C@@H](O[C@@H]2O[C@@H](C(=O)O)[C@@H](OS(=O)(=O)O)[C@H](O)[C@H]2OS(=O)(=O)O)[C@@H]1O` [D1, IdoA2S4S-GlcNAc], the “FGF-1 Sample Tm” value at FGF-1 is 44.5 °C and 44.5 ± 0.4 °C. In addition, the “FGF-2 Sample Tm” value on FGF-2 [2] was 51.6 °C and 51.6 ± 1.9 °C. Besides, in [1], the “aPTT mean clotting time” value is 22.5 s. Besides, the “competition with immobilized native HS” value on FGF-2 [3] is recorded as “much weaker effect; also recorded: minimal inhibition”.

On to “GlcNS6S-GlcA-GlcNS3S6S-IdoA2S-GlcNS6S-GlcA [H1, reference compound]”, for which the half-inhibitory concentration (IC50) – broadly, the concentration that inhibits the measured activity by half – at FGF-2 [3] was 2610 nM.

“FGF-2: fibroblast growth factor-2, basic FGF, applied alone at 40 ng/mL”: the “number of neurites emerging from the cell body” value in data set [4] (control 3.6 ± 0.22) amounted to 5.4 ± 0.28 neurites per neuron. For the same molecule, the “length of the longest neurite” value in [4] (control 38 ± 2) stood at 45 ± 4 μm. Further, in the data set on hippocampal neurons, the sPSCs amplitude is listed as 42 ± 5 pA and the sPSCs frequency was 1.23 ± 0.38 Hz.

On to `NCCCCCOC1OC(COS(=O)(=O)O)C(OC2OC(C(=O)NNS(=O)(=O)O)C(OS(=O)(=O)O)C(O)C2OS(=O)(=O)O)C(O)C1NS(=O)(=O)O` (stereo not shown) [D3, GlcANS6S-GlcNS6S], for which, at FGF-1, the “FGF-1 Sample Tm” value is 45.3 °C and 45.3 ± 0.3 °C. Moreover, the “FGF-2 Sample Tm” value on FGF-2 [2] is 54.2 °C and 54.2 ± 1.2 °C. Besides, the “aPTT mean clotting time” value in data set [1] amounted to 25.3 s. At FGF-2 [3], the “competition with immobilized native HS” value is “dose-dependent reduction in signal intensity” and the IC50 is 84500 nM.

Regarding `NC[C@H]1O[C@H](O[C@H]2[C@H](OS(=O)(=O)O)[C@@H](OS(=O)(=O)O)[C@@H](O[C@H]3[C@H](OS(=O)(=O)O)[C@@H](OS(=O)(=O)O)[C@@H](O[C@H]4[C@H](OS(=O)(=O)O)[C@@H](OS(=O)(=O)O)[C@@H]5OC[C@H]4O5)O[C@@H]3COS(=O)(=O)O)O[C@@H]2COS(=O)(=O)O)[C@H](OS(=O)(=O)O)[C@@H](OS(=O)(=O)O)[C@@H]1OS(=O)(=O)O` [T1, Glc2S3S-Glc2S3S6S-Glc2S3S6S-Glc2S3S], the “AT-III-mediated Factor IIa activity” value in the data set on Factor IIa (thrombin) is “slight interactions”. The “AT-III-mediated Factor Xa activity” value in the data set with Factor Xa is on record as “slight interactions”. For the same molecule, the “FGF-1 Sample Tm” value at FGF-1 was 46.3 °C and 46.3 ± 0.5 °C. The “FGF-2 Sample Tm” value at FGF-2 [2] is 59.3 °C and 59.3 ± 2.2 °C. The “binding to AT-III” value on AT-III is “bound to AT-III”. The “aPTT mean clotting time” value in [1] was 28.5 s. For the same molecule, at FGF-2 [3], the “competition with immobilized native HS” value was “dose-dependent reduction in signal intensity”; the IC50 was 900 nM and 910 nM.
